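How tested: cells in 96-well plates exposed to compound for 48 hours at five concentrations. TGI is the concentration that stops growth completely.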
Columns and labels:
Experiment in all cases: NCI anticancer screen, dose series, 48 h
CCRF-CEM leukemia = tested on: CCRF-CEM leukemia
KM12 colon = tested on: KM12 colon
U251 CNS = tested on: U251 CNS
UO-31 renal = tested on: UO-31 renal
SNB-78 CNS = tested on: SNB-78 CNS
IGROV1 ovarian = tested on: IGROV1 ovarian
NCI-H522 lung = tested on: NCI-H522 lung
SF-539 CNS = tested on: SF-539 CNS
RPMI-8226 leukemia = tested on: RPMI-8226 leukemia
ACHN renal = tested on: ACHN renal
OVCAR-4 ovarian = tested on: OVCAR-4 ovarian
MOLT-4 leukemia = tested on: MOLT-4 leukemia
RXF-631 renal = tested on: RXF-631 renal
OVCAR-8 ovarian = tested on: OVCAR-8 ovarian
MALME-3M melanoma = tested on: MALME-3M melanoma
UACC-62 melanoma = tested on: UACC-62 melanoma
HOP-62 NSCLC = tested on: HOP-62 NSCLC
SW-620 colon = tested on: SW-620 colon
SK-MEL-28 melanoma = tested on: SK-MEL-28 melanoma
K-562 leukemia = tested on: K-562 leukemia
M19-MEL melanoma = tested on: M19-MEL melanoma
CAKI-1 renal = tested on: CAKI-1 renal
HCT-15 colon = tested on: HCT-15 colon
SK-MEL-2 melanoma = tested on: SK-MEL-2 melanoma
SK-OV-3 ovarian = tested on: SK-OV-3 ovarian
SNB-75 CNS = tested on: SNB-75 CNS
OVCAR-3 ovarian = tested on: OVCAR-3 ovarian
SF-268 CNS = tested on: SF-268 CNS
HOP-92 NSCLC = tested on: HOP-92 NSCLC
A549 NSCLC = tested on: A549 NSCLC
HL-60(TB) leukemia = tested on: HL-60(TB) leukemia
DMS 114 small cell lung = tested on: DMS 114 small cell lung
LOX IMVI melanoma = tested on: LOX IMVI melanoma
LXFL 529 NSCLC = tested on: LXFL 529 NSCLC
TK-10 renal = tested on: TK-10 renal
SK-MEL-5 melanoma = tested on: SK-MEL-5 melanoma
786-0 renal = tested on: 786-0 renal
M14 melanoma = tested on: M14 melanoma
EKVX NSCLC = tested on: EKVX NSCLC
DLD-1 colon = tested on: DLD-1 colon
HCC-2998 colon = tested on: HCC-2998 colon
UACC-257 melanoma = tested on: UACC-257 melanoma
DMS 273 small cell lung = tested on: DMS 273 small cell lung
SF-295 CNS = tested on: SF-295 CNS
OVCAR-5 ovarian = tested on: OVCAR-5 ovarian
COLO 205 colon = tested on: COLO 205 colon
XF 498 CNS = tested on: XF 498 CNS
HT29 colon = tested on: HT29 colon
RXF 393 renal = tested on: RXF 393 renal
SN12C renal = tested on: SN12C renal
NCI-H226 lung = tested on: NCI-H226 lung
NCI-H460 lung = tested on: NCI-H460 lung
SNB-19 CNS = tested on: SNB-19 CNS
NCI-H23 lung = tested on: NCI-H23 lung
KM20L2 colon = tested on: KM20L2 colon
HCT-116 colon = tested on: HCT-116 colon

## COC(=O)C(=Cc1cc(OC)ccc1OC)C(=O)OC
CCRF-CEM leukemia
  TGI: 61.8 µM
KM12 colon
  TGI: 42.8 µM
U251 CNS
  TGI: 42.9 µM
UO-31 renal
  TGI: 50.9 µM
SNB-78 CNS
  TGI: > 100 µM
IGROV1 ovarian
  TGI: 56.9 µM
NCI-H522 lung
  TGI: 34.4 µM
SF-539 CNS
  TGI: 65.2 µM
RPMI-8226 leukemia
  TGI: 92.2 µM
ACHN renal
  TGI: 35.1 µM
OVCAR-4 ovarian
  TGI: 51.6 µM
MOLT-4 leukemia
  TGI: > 100 µM
RXF-631 renal
  TGI: 88.3 µM
OVCAR-8 ovarian
  TGI: > 100 µM
MALME-3M melanoma
  TGI: 74.6 µM
UACC-62 melanoma
  TGI: 73.7 µM
HOP-62 NSCLC
  TGI: 64.1 µM
SW-620 colon
  TGI: 55.6 µM
SK-MEL-28 melanoma
  TGI: 82.9 µM
K-562 leukemia
  TGI: 53.6 µM
M19-MEL melanoma
  TGI: 79.5 µM
CAKI-1 renal
  TGI: 43.3 µM
HCT-15 colon
  TGI: > 100 µM
SK-MEL-2 melanoma
  TGI: 50.1 µM
SK-OV-3 ovarian
  TGI: 76.2 µM
SNB-75 CNS
  TGI: 97 µM
OVCAR-3 ovarian
  TGI: 50.6 µM
SF-268 CNS
  TGI: > 100 µM
HOP-92 NSCLC
  TGI: 60 µM
A549 NSCLC
  TGI: 92 µM
HL-60(TB) leukemia
  TGI: 59.1 µM
DMS 114 small cell lung
  TGI: 53.1 µM
LOX IMVI melanoma
  TGI: 50.1 µM
LXFL 529 NSCLC
  TGI: 36 µM
TK-10 renal
  TGI: 97.4 µM
SK-MEL-5 melanoma
  TGI: 42.7 µM
786-0 renal
  TGI: 53.5 µM
M14 melanoma
  TGI: 36.6 µM
EKVX NSCLC
  TGI: 72.2 µM
DLD-1 colon
  TGI: 91.3 µM
HCC-2998 colon
  TGI: 34 µM
UACC-257 melanoma
  TGI: 35.1 µM
DMS 273 small cell lung
  TGI: > 100 µM
SF-295 CNS
  TGI: 82.1 µM
OVCAR-5 ovarian
  TGI: 61.5 µM
COLO 205 colon
  TGI: 34.1 µM
XF 498 CNS
  TGI: 47.4 µM
HT29 colon
  TGI: 56.5 µM
RXF 393 renal
  TGI: 31.3 µM
SN12C renal
  TGI: 64.3 µM
NCI-H226 lung
  TGI: > 100 µM
NCI-H460 lung
  TGI: 91.6 µM
SNB-19 CNS
  TGI: > 100 µM

## CC(C)(C)CC(C)(C)c1cc2c(O)c(c1)Cc1cc(C(C)(C)CC(C)(C)C)cc(c1O)Cc1cc(C(C)(C)CC(C)(C)C)cc(c1O)Cc1cc(C(C)(C)CC(C)(C)C)cc(c1O)C2
CCRF-CEM leukemia
  TGI: > 100 µM
KM12 colon
  TGI: > 100 µM
U251 CNS
  TGI: > 100 µM
UO-31 renal
  TGI: > 100 µM
SNB-78 CNS
  TGI: > 100 µM
IGROV1 ovarian
  TGI: > 100 µM
NCI-H522 lung
  TGI: > 100 µM
SF-539 CNS
  TGI: > 100 µM
RPMI-8226 leukemia
  TGI: > 100 µM
ACHN renal
  TGI: > 100 µM
OVCAR-4 ovarian
  TGI: > 100 µM
MOLT-4 leukemia
  TGI: > 100 µM
RXF-631 renal
  TGI: > 100 µM
OVCAR-8 ovarian
  TGI: > 100 µM
MALME-3M melanoma
  TGI: > 100 µM
UACC-62 melanoma
  TGI: > 100 µM
HOP-62 NSCLC
  TGI: > 100 µM
SW-620 colon
  TGI: > 100 µM
NCI-H23 lung
  TGI: > 100 µM
SK-MEL-28 melanoma
  TGI: > 100 µM
K-562 leukemia
  TGI: > 100 µM
M19-MEL melanoma
  TGI: > 100 µM
HCT-15 colon
  TGI: > 100 µM
SK-MEL-2 melanoma
  TGI: > 100 µM
SNB-75 CNS
  TGI: > 100 µM
OVCAR-3 ovarian
  TGI: > 100 µM
KM20L2 colon
  TGI: > 100 µM
SF-268 CNS
  TGI: > 100 µM
HOP-92 NSCLC
  TGI: > 100 µM
A549 NSCLC
  TGI: > 100 µM
HCT-116 colon
  TGI: > 100 µM
HL-60(TB) leukemia
  TGI: > 100 µM
DMS 114 small cell lung
  TGI: > 100 µM
LXFL 529 NSCLC
  TGI: > 100 µM
TK-10 renal
  TGI: > 100 µM
SK-MEL-5 melanoma
  TGI: > 100 µM
786-0 renal
  TGI: > 100 µM
M14 melanoma
  TGI: > 100 µM
EKVX NSCLC
  TGI: > 100 µM
DLD-1 colon
  TGI: > 100 µM
HCC-2998 colon
  TGI: > 100 µM
UACC-257 melanoma
  TGI: > 100 µM
DMS 273 small cell lung
  TGI: > 100 µM
SF-295 CNS
  TGI: > 100 µM
OVCAR-5 ovarian
  TGI: > 100 µM
COLO 205 colon
  TGI: > 100 µM
XF 498 CNS
  TGI: > 100 µM
HT29 colon
  TGI: > 100 µM
RXF 393 renal
  TGI: > 100 µM
SN12C renal
  TGI: > 100 µM
NCI-H460 lung
  TGI: > 100 µM
SNB-19 CNS
  TGI: > 100 µM
